Data on three compounds can be found in patent US20240226255A9, “COMPOSITIONS AND METHODS FOR ACTIVATING NK CELLS” (The Regents of the University of California, priority 2021, published 2024).

Data set [1] has as its system vector-alone transfected HEp2 cells. Kind of data set: 51Cr release: NK cell lysis of Sulindac treated vector-alone transfected HEp2 cells. Type of data set: cell-based. The following applies: Sulindac 50-200 μm for 3-4 hours, vs non-treated HEp2 cells. On the procedure: . (FIG. 17A) 4×10^6 vector-alone transfected HEp2 cells were labeled with ^51Cr for 1 hour at 37° C. […] Treatment of NK cells with IL-2 was carried out for 8-12 hours before their addition to the target cells. […] After an overnight incubation the cells were washed to remove the drugs, and the tumor cells were then co-cultured in the presence of untreated and IL-2 (500 u/ml) treated NK cells. After 48 hours of incubation the supernatants were removed from the NK-HEp2 cell co-cultures and assayed for released GM-CSF.

A short description of data set [2]: Osteonecrosis of the jaw (ONJ) after ZOL injection and molar extraction. Type of data set: in vivo. The following applies: Rag2−/− mice injected with ZOL. On the procedure: (§1) 7-week old female WT mice, and female Rag2^−/− mice (B6(Cg)-Rag2tm1.1Cgn/J null mutation in recombination-activating gene-2 resulting in the deficiency of B and T lymphocytes) were purchased from the Jackson Laboratory, Bar Harbor, ME. The UCLA Animal Research Committee reviewed and approved all experimental protocols involving animals (ARC 1997-136). Female WT mice and Rag2^−/− mice were injected with the single injection of 500 μg/kg ZOL or 0.9% NaCl vehicle solution via tail vein.
(§2) After 1-week of the ZOL and NaCl injection maxillary first molar was extracted as described previously. During the extraction procedure, mice were anesthetized via continuous inhalation of 2-4% isoflurane mixed with oxygen and placed on a custom-made surgical table in a supine position using the fixed positioner on the maxillary incisors. Immediately prior to tooth extraction, 5.0 mg/kg carprofen was subcutaneously injected, and mice received 5.0 mg/kg carprofen injection every 24 h for 48 h. Mice were sacrificed and various tissues were studied 4-weeks after the tooth extraction.

The subject of data set [3] is BM cells, splenocytes, spleen-purified NK cells, oral gingiva cells. Kind of data set: IFN-γ ELISA of IL-2 cultured tissue cells from mice given ZOL or NaCl, then molar extraction. Type of data set: in vivo. The following applies: for ZOL-induced decrease in IFN-γ: oral tooth extraction site. On the procedure: as §1, §2
Single cell-suspension from each tissue of WT and Rag2^−/− female mice were activated with IL-2 (10,000 U/ml) for 5 days before the supernatants/culture media were harvested after to determine the levels of IFN-γ secretion. IFN-γ ELISAs were performed and standard curve was generated as described previously. A standard curve was generated by either two or three-fold dilution of recombinant IFN-γ provided by the manufacturer to analyze and obtain the IFN-γ concentration (Biolegend, San Diego, CA).
WT and RAG2 mice were administered with either 0.9% NaCl or ZOL (500 μg/kg) via tail vein followed by maxillary left first molar extraction as described in Materials and Methods section. Week 4 after the tooth extraction, animals were sacrificed, BM cells, splenocytes, splenocytes-purified NK cells and oral gingiva cells were cultured at (1×10^6 cells/ml) each treated with IL-2 (10000 U/ml) for 5 days, after which the supernatants were harvested and the levels of IFN-γ were determined using specific ELISA. Modulation of IFN-7 by ZOL in both WT and RAG2 mice models were determined, and fold change in comparison to NaCl controls was calculated for each tissue.
On the technique in general: In an ELISA, binding on a coated surface is turned into a signal by an enzyme label.

For the next data set, the system named is st63 cells. The following applies: Rag2−/− mice.
The subject of the next data set is OSCSCs. Kind of data set: 4 h 51Chromium release assay of human NK cells against OSCSCs. Type of data set: cell-based. The note with it: LPS 20 ng/mL, 24-48 h. How it is done:
(§3) Afterward, the cytotoxicity against OSCSCs was assessed using a standard 4 h ^51Chromium release assay. […] NK cells were prepared as described in FIG. 5A. […] One of several representative experiments is shown in this figure.
(§4) Human NK cells were purified from healthy donors and left untreated or treated with IL-2 (1000 U/mL) or the combination of IL-2 (1000 U/mL) and anti-CD16mAb (3 μg/mL) in the presence of sAJ2 (NK cell:sAJ2, 1:3), autologous monocytes (NK cell:monocytes, 1:1) or the combination of sAJ2 (NK cell:sAJ2, 1:3) and autologous monocytes (NK cell:monocytes, 1:1) for 24-48 h. Afterward, the cytotoxicity against OSCSCs cells was assessed using a standard 4 h ^51Chromium release assay. […] NK cells were prepared as described in FIG. 6A and after the treatment period, the supernatants were removed from the co-cultures and the levels of IFN-γ cytokine were measured with specific ELISA. *P<0.05 was obtained for the differences in cytotoxicity and IFN-γ secretion between human NK cells cultured in media and those treated with sAJ2, monocytes or the combination of sAJ2 and monocytes. One of several representative experiments is shown in this figure (FIG. 8B). […] After an overnight incubation, the supernatants were collected and the levels of IFN-γ, IL-15, IFN-α, and IL-12 were determined by ELISAs in a multiplexed format using Luminex technology (FIG. 8C). […]

The test system of data set [4] is DCs from wild type or Cox-2flox/flox;LysMCre/+ mice. Kind of data set: 4 h 51Chromium release assay of mouse NK cells ± LPS against monocyte-derived DCs. The following applies: IL-2-treated WT NK cells + WT or KO monocytes. Type of data set: cell-based. How it is done:
(§5) Afterward, NK cells were used as effector cells in a standard 4 h ^51Chromium release assay against YAC-1 cells. […] NK cells were treated as described in (FIG. 4A) and afterward the supernatant was removed from the co-cultures and the levels of IFN-γ secretion were determined using specific ELISAs. *P<0.05 was obtained for differences in secretion of IFN-γ between untreated and LPS-treated NK cells cultured with monocytes from control littermates or those from Cox-2flox/flox;LysMCre/+ mice (FIG. 4B). NK cells were prepared as described in (FIG. 4A) and used as effector cells against DCs derived from monocytes from either wild type or Cox-2flox/flox; LysMCre/+ mice in a standard 4 h ^51Chromium release assay. […] One of several representative experiments is shown in this figure.
(§6) Similar results to those seen with YAC-1 targets were also seen when control and Cox-2flox/flox;LysMCre/+ DCs were used as targets (FIG. 4C).

The test system of data set [5] is NK cells. Kind of data set: IFN-γ ELISA of mouse NK cell-monocyte co-cultures ± LPS. Type of data set: cell-based. The following applies: LPS 20 ng/mL. How it is done: as §5, §6
Data set [6] concerns NK cells. Kind of data set: IFN-γ ELISA of human NK cell cultures. Type of data set: cell-based. The following applies: LPS 20 ng/mL, 24-48 h. On the procedure:
as §3, §4

Another data set deals with YAC-1 cells. Kind of data set: 4 h 51Chromium release assay of mouse NK cells cultured with monocytes ± LPS against YAC-1. Type of data set: cell-based. The following applies: IL-2-treated WT NK cells + monocytes from control WT littermates; LPS 20 ng/mL. How it is done:
as §5, §6

Description for st63 cells: RAG2 mice were administered with either 0.9% NaCl or ZOL (500 μg/kg) via tail vein followed by maxillary left first molar extraction as described in Materials and Methods section. […] Week 4 after the tooth extraction, animals were sacrificed, BM cells (n=9), splenocytes (n=9), and NK cells purified from splenocytes (n=5) were cultured at (1×10^6 cells/ml) each treated with IL-2 (10000 U/ml) for 5 days, after which the cells were used as effector cells against tumor targets. Cytotoxicity assays were performed using standard 4-hour ^51Cr release assay against st63 cells, and the LU 30/10^6 cells were determined using inverse number of cells required to lyse 30% of st63 cells×100 (FIG. 16B).
Single cell-suspension from each tissue and spleen-purified NK cells from WT and Rag2^−/− mice female mice were activated with IL-2 (10,000 U/ml) for 5 days and were used as effector cells on day 5. […] After that, the supernatants were harvested from each sample and released radioactivity was counted using the gamma counter. The percentage (%) specific cytotoxicity was calculated as follows:
% Cytotoxicity=Experimental cpm−spontaneous cpm/Total cpm−spontaneous cpm • Lytic Units (LU) 30/10^6 was calculated by using the inverse of the number of effector cells needed to lyse 30% of tumor target ST63 cells×100.

In the case of `CC1=C(CC(=O)O)c2cc(F)ccc2/C1=C\c1ccc([S+](C)[O-])cc1` (stereo not shown) [Sulindac], in [1], the “NK cell lysis of treated HEp2 cells” value was “increased lysis”.

With `O=P(O)(O)C(O)(Cn1ccnc1)P(=O)(O)O` [ZOL, zolendronate], the ONJ entry in [2] is “no ONJ was seen”. The “ZOL-induced increase in IFN-γ” value is 50-75% in [3] (BM, Rag2−/− mice); 300-500% in data set [3] (BM, WT mice); 20-90% in data set [3] (NK cells purified from splenocytes, WT mice); 100-240% in [3] (splenocytes, WT mice). Also, the “IFN-γ secretion after ZOL injections” value in [3] (BM, Rag2−/− mice, vs NaCl) was “significantly increased”. Further, the “Fold change in IFN-γ secretion (ZOL group/NaCl group)” value is reported as 1.5-1.75 fold in data set [3] (Bone marrow, Rag2−/− (Rag KO) mice, ZOL 500 μg/kg); 4-6 fold in [3] (Bone marrow, WT mice, ZOL 500 μg/kg tail vein, week 4 after tooth extraction, cells + IL-2 5 days); 0.22-0.35 fold in [3] (Gingiva, Rag2−/− (Rag KO) mice, ZOL 500 μg/kg); 0.3-0.5 fold in data set [3] (Gingiva, WT mice, ZOL 500 μg/kg); 0.5-0.66 fold in data set [3] (Spleen, Rag2−/− (Rag KO) mice, ZOL 500 μg/kg); 2-3.4 fold in [3] (Spleen, WT mice, ZOL 500 μg/kg). Further, the “Fold change in IFN-γ secretion (ZOL group/NaCl group)” value in [3] (Spleen-purified NK cells, Rag2−/− (Rag KO) mice, ZOL 500 μg/kg) is recorded as 0.35-0.42 fold; in data set [3] (Spleen-purified NK cells, WT mice, ZOL 500 μg/kg) it was 1.2-1.9 fold. For the same compound, the “ZOL-induced drop in IFN-γ” value in [3] (NK cells purified from splenocytes, Rag2−/− mice) is recorded as 58-65%; in [3] (splenocytes, Rag2−/− mice), 34-50%. In addition, the “ZOL-induced decrease in IFN-γ” value is recorded as 65-78% in [3] (Rag2−/− mice) and 50-70% in data set [3] (WT mice). Also, the “secretion of IFN-γ after ZOL intake” value in data set [3] (spleen, spleen-purified NK cells and oral gingiva cells, Rag2−/− mice) is given as “blocked”. In the data set with st63 cells (BM, vs NaCl), the “NK cell-mediated cytotoxicity after ZOL injections” value is given as “significantly increased”. The “NK cell-mediated cytotoxicity with ZOL” value in the data set on st63 cells (spleen and spleen-purified NK cells) is “blocked”.

Consider Lipopolysaccharide [LPS], for which the “NK cell-mediated cytotoxicity against OSCSCs” value with OSCSCs was “loss”. In data set [4], the “NK cell cytotoxicity against wild type and Cox-2flox/flox;LysMCre/+ DCs” value was “decreased”. Further, the IFN-γ secretion entry with NK cells [5] (IL-2-treated WT NK cells + monocytes from Cox-2flox/flox;LysMCre/+ mice) is on record as “increasing IFN-γ secretion significantly”; in the data set on NK cells [6], “increasing”. The “amount of IFN-γ secreted by the NK cells” value in the data set with NK cells [5] (IL-2-treated WT NK cells + monocytes from control WT littermates) is on record as “increased”. Further, in the data set with YAC-1 cells, the “NK cells' ability to lyse YAC-1 cells” value was “complete shutdown”.
